Results published in US10441593B2, “Treatment of pain associated with dislocation of endometrium” (PREGLEM S.A., priority 2010, dated 2019).

Tested on: patients with uterine fibroids and adenomyosis or endometriosis
Test: Clinical study: 5 mg or 10 mg ulipristal on pain in patients with adenomyosis or endometriosis (Example 2)
Assay type: in vivo, human
Parameters: key to PBAC score at the end of treatment (week 13): PBAC score; normal <75, >100 menorrhagia; higher is worse; key to A(SF-MPQ) Score: SF-MPQ Part A pain score; lower score is better; key to B(VAS) Score / B(VAS) CFB: SF-MPQ Part B VAS pain score; lower score is better
Description: Different parameters were assessed before treatment (Baseline) and after the end of treatment (13 weeks): • The PBAC score (Pictorial Blood Loss Assessment Chart) gives an estimation of the menstrual blood loss. This score was measured before treatment and continuing up to week 13 of treatment. Normal menstrual bleeding score is <75. Abnormal bleeding (menorrhagia) is characterized by a PBAC score >100. Higher the score, worse is the bleeding. • The Uterine volume was estimated before treatment (Baseline Uterine volume) and the % change in uterine volume was reported at the end of the treatment (week 13). • The SF-M P QPart A (short form of the Mc Gill Pain questionnaire) was used as a measure of the sensory, affective and intensity dimensions of pain. The pain was estimated before treatment and the change was reported at the end of the treatment (week 13). (NOTE: The lowest is the score, the better it is). • The SF-MPQ Part B (short form of the Mc Gill Pain questionnaire) wherein the pain is assessed with a visual analogue scale (VAS) before treatment and the change was reported at the end of the treatment (week 13). (NOTE: The lowest is the score, the better it is). • Discomfort questionnaire (disease specific quality of life questionnaire) estimating the quality of life before treatment and the change was reported at the end of the treatment (week 13). (NOTE: The lowest is the score, the better it is). • The level of Hb (Hemoglobin) was measured before treatment and at the end of the treatment. (NOTE: the higher it is, the better it is.) 3. Results
A double-blinded, randomized, study evaluating the effect of long term oral administration of 5 mg or 10 mg ulipristal in patients with heavy menstrual bleeding and pain.
The control group consisted of patients treated with GnRH agonist.
These patients included women 36 years of age or older with evidence of uterine fibroids and adenomyosis or endometriosis diagnosed by ultrasound.
Patient 210/5252 (candidate having adenomyosis) received a daily dose of 5 mg ulipristal (Esmya®) for 13 weeks and was followed up to week 38. A myomectomy by laparotomy was conducted after Week 13 visit.
Patient 281/5214 (candidate having endometriosis) received a daily dose of 5 mg ulipristal (Esmya®) for 13 weeks and was followed up to week 38.
Patient 210/5095 (candidate having adenomyosis) received a daily dose of 10 mg ulipristal (Esmya®) for 13 weeks and was followed up to week 38. A hysterectomy by laparoscopy was conducted after Week 13 visit.
Patient 210/5308 (candidate having endometriosis) received a daily dose of 10 mg ulipristal (Esmya®) for 13 weeks and was followed up to week 38. A myomectomy by hysteroscopy was conducted after Week 13 visit.
A myomectomy by laparoscopy and hysteroscopy was conducted between Week 26 & 38 visits.
Patient 250/5090 (candidate having endometrioma) received a daily dose of 10 mg ulipristal (Esmya®) for 13 weeks and was followed up to week 38.

[1] = 5 mg/day 13 weeks, patient 210/5252, adenomyosis, Week 5
[2] = 5 mg/day 13 weeks, patient 210/5252, adenomyosis, Week 13
[3] = 5 mg/day 13 weeks, patient 210/5252, adenomyosis, Week 26 follow-up, myomectomy by laparotomy after Week 13
[4] = 5 mg/day 13 weeks, patient 210/5252, adenomyosis, Week 38 follow-up, myomectomy by laparotomy after Week 13
[5] = 5 mg/day 13 weeks, patient 210/5252, adenomyosis, week 9
[6] = 5 mg/day 13 weeks, patient 281/5214, endometriosis, Week 5
[7] = 5 mg/day 13 weeks, patient 281/5214, endometriosis, Week 13
[8] = 5 mg/day 13 weeks, patient 281/5214, endometriosis, Week 17 follow-up, no surgery
[9] = 5 mg/day 13 weeks, patient 281/5214, endometriosis, Week 26 follow-up, no surgery
[10] = 5 mg/day 13 weeks, patient 281/5214, endometriosis, Week 38 follow-up, no surgery
[11] = 5 mg/day 13 weeks, patient 281/5214, endometriosis, week 9
[12] = 10 mg/day 13 weeks, patient 210/5095, adenomyosis, Week 5
[13] = 10 mg/day 13 weeks, patient 210/5095, adenomyosis, Week 13
[14] = 10 mg/day 13 weeks, patient 210/5095, adenomyosis, Week 17 follow-up, hysterectomy by laparoscopy after Week 13
[15] = 10 mg/day 13 weeks, patient 210/5095, adenomyosis, Week 26 follow-up, hysterectomy by laparoscopy after Week 13
[16] = 10 mg/day 13 weeks, patient 210/5095, adenomyosis, Week 38 follow-up, hysterectomy by laparoscopy after Week 13
[17] = 10 mg/day 13 weeks, patient 210/5095, adenomyosis, week 9
[18] = patient 210/5095, 10 mg, adenomyosis and uterine fibroids

CC(=O)O[C@]1(C(C)=O)CC[C@H]2[C@@H]3CCC4=CC(=O)CCC4=C3[C@@H](c3ccc(N(C)C)cc3)C[C@@]21C [Ulipristal, 17α-acetoxy-11β-[4-N,N-dimethylamino-phenyl)-19-norpregna-4,9-diene-3,20-dione]
A(SF-MPQ) CFB [1]: −2 | A(SF-MPQ) Score [1]: 14 | B(VAS) CFB [1]: 21 | B(VAS) Score [1]: 64 | PBAC CFB [1]: 150 | PBAC Score [1]: 375 | % Change in Uterine Volume [2]: 6.6% | A(SF-MPQ) CFB [2]: −3 | A(SF-MPQ) Score [2]: 9 | B(VAS) CFB [2]: −6 | B(VAS) Score [2]: 37 | PBAC CFB [2]: −101 | PBAC Score [2]: 124 | Uterine Volume [2]: 251.7 cm3 | A(SF-MPQ) CFB [3]: −4 | A(SF-MPQ) Score [3]: 8 | B(VAS) CFB [3]: 24 | B(VAS) Score [3]: 67 | PBAC CFB [3]: 530 | PBAC Score [3]: 755 | A(SF-MPQ) CFB [4]: −3 | A(SF-MPQ) Score [4]: 9 | B(VAS) CFB [4]: 27 | B(VAS) Score [4]: 70 | PBAC CFB [4]: 46 | PBAC Score [4]: 271 | A(SF-MPQ) CFB [5]: −1 | A(SF-MPQ) Score [5]: 11 | B(VAS) CFB [5]: 14 | B(VAS) Score [5]: 57 | PBAC CFB [5]: 58 | PBAC Score [5]: 283 | A(SF-MPQ) CFB [6]: −3 | A(SF-MPQ) Score [6]: 1 | B(VAS) CFB [6]: −17 | B(VAS) Score [6]: 3 | PBAC CFB [6]: −174 | PBAC Score [6]: 46 | % Change in Uterine Volume [7]: 21.3% | A(SF-MPQ) CFB [7]: −4 | A(SF-MPQ) Score [7]: 0 | B(VAS) CFB [7]: −20 | B(VAS) Score [7]: 0 | PBAC CFB [7]: −220 | PBAC Score [7]: 0 | Uterine Volume [7]: 159.1 cm3 | % Change in Uterine Volume [8]: 12.6% | Uterine Volume [8]: 147.7 cm3 | % Change in Uterine Volume [9]: −21.2% | B(VAS) CFB [9]: 53 | B(VAS) Score [9]: 73 | PBAC CFB [9]: −168 | PBAC Score [9]: 52 | Uterine Volume [9]: 102.2 cm3 | % Change in Uterine Volume [10]: −24.6% | A(SF-MPQ) CFB [10]: −4 | A(SF-MPQ) Score [10]: 0 | B(VAS) CFB [10]: −20 | B(VAS) Score [10]: 0 | PBAC CFB [10]: 351 | PBAC Score [10]: 571 | Uterine Volume [10]: 98.9 cm3 | A(SF-MPQ) CFB [11]: −4 | A(SF-MPQ) Score [11]: 0 | B(VAS) CFB [11]: −20 | B(VAS) Score [11]: 0 | PBAC CFB [11]: −220 | PBAC Score [11]: 0 | A(SF-MPQ) CFB [12]: 14 | A(SF-MPQ) Score [12]: 0 | B(VAS) CFB [12]: −88 | B(VAS) Score [12]: 0 | PBAC CFB [12]: −532 | PBAC Score [12]: 328 | % Change in Uterine Volume [13]: −33.8% | A(SF-MPQ) CFB [13]: −14 | A(SF-MPQ) Score [13]: 0 | B(VAS) CFB [13]: −88 | B(VAS) Score [13]: 0 | PBAC CFB [13]: −860 | PBAC Score [13]: 0 | Uterine Volume [13]: 284.7 cm3 | A(SF-MPQ) CFB [14]: −14 | A(SF-MPQ) Score [14]: 0 | A(SF-MPQ) CFB [15]: −14 | A(SF-MPQ) Score [15]: 0 | B(VAS) CFB [15]: −88 | B(VAS) Score [15]: 0 | PBAC Score [15]: 0 | A(SF-MPQ) CFB [16]: −14 | A(SF-MPQ) Score [16]: 0 | B(VAS) CFB [16]: −88 | B(VAS) Score [16]: 0 | A(SF-MPQ) CFB [17]: 14 | A(SF-MPQ) Score [17]: 0 | B(VAS) CFB [17]: −88 | B(VAS) Score [17]: 0 | PBAC CFB [17]: −860 | PBAC Score [17]: 0 | uterine volume at week 13 compared to baseline (3 of 4 patients (210/5095, 210/5308, 250/5090), 10 mg): decrease in uterine volume | bleeding starting from week 9 [18]: did not bleed anymore | pain starting from 5th week [18]: no pain anymore | PBAC value at week 13 (patient 210/5308, 10 mg/day 13 weeks, endometriosis): 55 | pain at week 5, 9, 13 compared to baseline (patients 281/5214, 210/5095, 210/5308, 250/5090, 5 mg or 10 mg): improvement in pain | PBAC score at the end of treatment (week 13) (patients 281/5214, 210/5095, 250/5090, 5 mg or 10 mg): 0
